Test results from US7803801B2, “Aminopyridine compounds having Syk inhibitory activity” (Japan Tobacco, Inc., priority 2005, dated 2010).
Structures can show the parent of a compound that is named as a salt. Where two headings read alike, the source gives them in different places.

Columns and labels:
[1] = test system: cultured human mast cells; assay: Degranulation inhibition test using cultured human mast cells (IgE cross-linking, β-Hexosaminidase release); type: cell-based; conditions: Mast cell, cultured human mast cells, read-out: human degranulation ave. IC50
In short: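 CD34+ cord-blood cells cultured ≥8 weeks with SCF/IL-6/IL-3; FcεRI primed 5 days with rhIL-4 (1 ng/mL) and hIgE (0.5 μg/mL). Compound (0.1% DMSO) preincubated 10 min at 37 °C, then anti-IgE (final 10 μg/mL) 30 min; released β-hexosaminidase read at 405 nm versus total lysate, IC50 (M).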

[2] = target: GST-Syk Full Protein (human) (Homo sapiens, UniProt P43405); assay: Syk kinase inhibition test (HTRF method); type: biochemical
In short: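 Human GST-Syk full-length (6.4 nM) phosphorylated biotin-EDPDYEWPSA-NH2 (250 nM) with 100 μM ATP in HEPES pH 7.0/MgCl2 buffer, 2% DMSO, 30 min at room temperature. EDTA stop, then HTRF detection (streptavidin-XL665, Eu anti-phosphotyrosine) after 1 h; 665/620 ratio read.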

[3] = anti-hIgE stimulation, β-Hexosaminidase index, average
[4] = HTRF, 100 μM ATP, 30 min room temperature, average, read-out: sykHTRF ave IC50
[5] = Tables 2-x, thiophene compounds B
[6] = Tables 2-x, thiophene compounds B, read-out: sykHTRK ave IC50
[7] = Tables 1-x, compounds A, read-out: sykHTRF ave IC50

| IC50 [1, 3] [nM] | IC50 [2, 4] [nM] | SMILES | further results |
| --- | --- | --- | --- |
| 100 to 1000 | < 100 | Cc1ccnc(Nc2cccc(-c3cnc(CCCCCO)s3)n2)c1 [Compound A-70, 5-{5-[6-(4-methylpyridin-2-ylamino)pyridin-2-yl]thiazol-2-yl}pentan-1-ol] | – |
| 100 to 1000 | < 100 | Cc1ccnc(Nc2cccc(-c3cnc(CCO)s3)n2)c1 [Compound A-205, 2-{5-[6-(4-methylpyridin-2-ylamino)pyridin-2-yl]thiazol-2-yl}ethanol] | – |
| > 1000 | 100 to 1000 | Cc1ccnc(Nc2cccc(-c3cnc(Cc4cccs4)s3)n2)c1 [Compound A-232] | – |
| 100 to 1000 | 100 to 1000 | Cc1ccnc(Nc2cccc(-c3cnc(CCNS(C)(=O)=O)s3)n2)c1 [Compound A-261] | – |
| 100 to 1000 | 100 to 1000 | Cc1ccnc(Nc2cccc(-c3cnc(CCN)s3)n2)c1 [Compound A-245] | – |
| 100 to 1000 | 100 to 1000 | CC(=O)NCCc1ncc(-c2cccc(Nc3cc(C)ccn3)n2)s1 [Compound A-256] | – |
| 100 to 1000 | < 100 | Cc1ccnc(Nc2cccc(-c3cnc(CCC4CCC(O)CC4)s3)n2)c1 (stereo not shown) [Compound A-173, 4-(2-{5-[6-(4-methylpyridin-2-ylamino)pyridin-2-yl]thiazol-2-yl}ethyl)cyclohexanol] | – |
| 100 to 1000 | < 100 | Cc1ccnc(Nc2cccc(-c3cnc(Cc4cccnc4)s3)n2)c1 [Compound A-248, N-(4-methylpyridin-2-yl)-N-[6-(2-pyridin-3-ylmethylthiazol-5-yl)pyridin-2-yl]amine] | – |
| > 1000 | 100 to 1000 | Cc1ccnc(Nc2cccc(-c3cnc(C(C)(C)CC(=O)O)s3)n2)c1 [Compound A-145] | – |
| 100 to 1000 | 100 to 1000 | CCOC(=O)CNC(=O)NCc1ncc(-c2cccc(Nc3cc(C)ccn3)n2)s1 [Compound A-252] | – |
| 100 to 1000 | 100 to 1000 | Cc1ccnc(Nc2cccc(-c3cnc([C@@H](O)CO)s3)n2)c1 [Compound A-78] | – |

Further lines, the compound ahead of its results:

| SMILES | IC50 [1, 3] [nM] | IC50 [2, 4] [nM] | further results |
| --- | --- | --- | --- |
| O=C(O)[C@H]1CC[C@H](c2ncc(-c3cccc(Nc4cc(Cl)ccn4)n3)s2)CC1 [Compound A-204, trans-4-{5-[6-(4-chloropyridin-2-ylamino)pyridin-2-yl]thiazol-2-yl}cyclohexanecarboxylic acid] | 100 to 1000 | < 100 | – |
| O=C1CC[C@@H](c2ncc(-c3cccc(Nc4cc(CCO)ccn4)n3)s2)N1 [Compound A-330, (S)-5-(5-{6-[4-(2-hydroxyethyl)pyridin-2-ylamino]pyridin-2-yl}thiazol-2-yl)pyrrolidin-2-one] | 100 to 1000 | < 100 | – |
| Cc1ccnc(Nc2cccc(-c3cnc(C4CCC(O)CC4)s3)n2)c1 (stereo not shown) [Compound A-73, 4-{5-[6-(4-methylpyridin-2-ylamino)pyridin-2-yl]thiazol-2-yl}cyclohexanol] | 100 to 1000 | < 100 | – |
| Cc1ccnc(Nc2cccc(-c3cnc([C@H]4CC[C@H](C(=O)N5CC[C@H](O)[C@@H](O)C5)CC4)s3)n2)c1 [Compound A-225] | 100 to 1000 | 100 to 1000 | – |
| CO/N=C(\N)c1ccc(-c2cccc(Nc3cc(C)ccn3)n2)s1 [Compound B-69] | – | – | IC50 [1, 5]: 100 to 1000 nM; IC50 [2, 6]: 100 to 1000 nM |
| Cc1ccnc(Nc2cccc(-c3cnc(N(C)CC(=O)N(C)CC(=O)O)s3)n2)c1 [Compound A-580, {N-methyl-N-[2-(N′-methyl-N′-{5-[6-(4-methylpyridin-2-ylamino)pyridin-2-yl]thiazol-2-yl}amino)acetyl]amino}acetic acid dihydrochloride] | – | – | IC50 ([1]; Tables 1-x, compounds A): > 1000 nM; IC50 [2, 7]: < 100 nM |
| CC(=O)c1ccnc(Nc2cccc(-c3cnc(N4CCC(C(N)=O)CC4)s3)n2)c1 [Compound A-543, 1-{5-[6-(4-acetylpyridin-2-ylamino)pyridin-2-yl]thiazol-2-yl}piperidine-4-carboxamide] | – | – | IC50 ([1]; Tables 1-x, compounds A): 100 to 1000 nM; IC50 [2, 7]: < 100 nM |
| Cc1ccnc(Nc2cccc(-c3cnc([C@@H]4CCC(=O)N4C)s3)n2)c1 [Compound A-373] | 100 to 1000 | 100 to 1000 | – |
| Cc1ccnc(Nc2cccc(-c3cnc([C@H]4CC[C@H](C(=O)N(C)C)CC4)s3)n2)c1 [Compound A-264] | 100 to 1000 | 100 to 1000 | – |
| CC(=NO)c1ccc(-c2cccc(Nc3cc(C)ccn3)n2)s1 [Compound B-15, 1-{5-[6-(4-methylpyridin-2-ylamino)pyridin-2-yl]thiophen-2-yl}ethanone oxime] | – | – | IC50 [1, 5]: 100 to 1000 nM; IC50 [2, 6]: < 100 nM |
| OCC1CCN(c2ncc(-c3cccc(Nc4cc(Cl)ccn4)n3)s2)C1 (stereo not shown) [Compound A-562, (1-{5-[6-(4-chloropyridin-2-ylamino)pyridin-2-yl]thiazol-2-yl}pyrrolidin-3-yl)methanol] | – | – | IC50 ([1]; Tables 1-x, compounds A): < 100 nM; IC50 [2, 7]: < 100 nM |
| Cc1ccnc(Nc2cccc(-c3cnc([C@H]4CC[C@H](C(=O)N5CCC(O)CC5)CC4)s3)n2)c1 [Compound A-8, (4-hydroxypiperidin-1-yl)-(trans-4-{5-[6-(4-methylpyridin-2-ylamino)pyridin-2-yl]thiazol-2-yl}cyclohexyl)methanone] | 100 to 1000 | 100 to 1000 | – |
| Cc1ccnc(Nc2cccc(-c3ccc(C(=O)NC(C)(C)CC(=O)O)s3)n2)c1 [Compound B-101] | – | – | IC50 [1, 5]: > 1000 nM; IC50 [2, 6]: 100 to 1000 nM |
| Cc1ccnc(Nc2cccc(-c3cnc(CN4C(=O)CNCC4=O)s3)n2)c1 [Compound A-415] | – | – | IC50 ([1]; Tables 1-x, compounds A): 100 to 1000 nM; IC50 [2, 7]: 100 to 1000 nM |
| COC(=O)CN1CCC(c2ncc(-c3cccc(Nc4cc(C)ccn4)n3)s2)CC1 [Compound A-184] | 100 to 1000 | 100 to 1000 | – |
| Cc1ccnc(Nc2cccc(-c3ccc(Cl)s3)n2)c1 [Compound B-16] | – | – | IC50 [1, 5]: > 1000 nM; IC50 [2, 6]: 100 to 1000 nM |
| CC(=O)N(C)[C@@H](Cc1ccc(O)cc1)c1ncc(-c2cccc(Nc3cc(C)ccn3)n2)s1 [Compound A-376] | – | – | IC50 ([1]; Tables 1-x, compounds A): 100 to 1000 nM; IC50 [2, 7]: 100 to 1000 nM |
| CNC(=O)CC1CCN(c2ncc(-c3cccc(Nc4cc(C)ccn4)n3)s2)CC1 [Compound A-505, N-methyl-2-(1-{5-[6-(4-methylpyridin-2-ylamino)pyridin-2-yl]thiazol-2-yl}piperidin-4-yl)acetamide] | – | – | IC50 ([1]; Tables 1-x, compounds A): 100 to 1000 nM; IC50 [2, 7]: < 100 nM |
| Cc1ccnc(Nc2cccc(-c3cnc(CN4C[C@@H](O)[C@@H](O)C4)s3)n2)c1 [Compound A-381] | – | – | IC50 ([1]; Tables 1-x, compounds A): 100 to 1000 nM; IC50 [2, 7]: 100 to 1000 nM |
| Cc1ccnc(Nc2cccc(-c3cnc(N4CCC[C@@H](C(N)=O)C4)s3)n2)c1 [Compound A-533, (R)-1-{5-[6-(4-methylpyridin-2-ylamino)pyridin-2-yl]thiazol-2-yl}piperidine-3-carboxamide] | – | – | IC50 ([1]; Tables 1-x, compounds A): 100 to 1000 nM; IC50 [2, 7]: < 100 nM |
| Cc1ccnc(Nc2cccc(-c3cnc(N4CCCC(CO)C4)s3)n2)c1 (stereo not shown) [Compound A-498, (1-{5-[6-(4-methylpyridin-2-ylamino)pyridin-2-yl]thiazol-2-yl}piperidin-3-yl)methanol] | – | – | IC50 ([1]; Tables 1-x, compounds A): 100 to 1000 nM; IC50 [2, 7]: < 100 nM |
| Cc1ccnc(Nc2cccc(-c3cnc([C@H](C)NC(=O)CC(=O)O)s3)n2)c1 [Compound A-123] | > 1000 | 100 to 1000 | – |
| Cc1ccnc(Nc2cccc(-c3cnc([C@H]4CC[C@H](C(=O)NN5CCC(O)CC5)CC4)s3)n2)c1 [Compound A-298, N-(4-hydroxypiperidin-1-yl)-trans-4-{5-[6-(4-methylpyridin-2-ylamino)pyridin-2-yl]thiazol-2-yl}cyclohexanecarboxamide] | 100 to 1000 | < 100 | – |
| Cc1ccnc(Nc2cccc(-c3sccc3C)n2)c1 [Compound B-5] | – | – | IC50 [1, 5]: > 1000 nM; IC50 [2, 6]: 100 to 1000 nM |
